Laboratory results taken from ChEMBL document CHEMBL2396653, “Synthesis and antimycobacterial evaluation of N-substituted 5-chloropyrazine-2-carboxamides” (Bioorg Med Chem Lett, 2013).
Values after ≈ are worked out from the molar mass of the structure shown. Active and inactive are the calls of the source. The rule behind the calls is not given here.

What was measured:
[1] = Stability of the compound at pH 7; format: physicochemical; conditions: buffer
[2] = test system: Trichophyton mentagrophytes; experiment: Antifungal activity against Trichophyton mentagrophytes 445 assessed as growth inhibition after 72 to 120 hrs by microbroth dilution method; format: functional, organism-based
Lichtheimia corymbifera = experiment: Antifungal activity against Absidia corymbifera 272 assessed as growth inhibition after 24 to 48 hrs by microbroth dilution method; format: functional, organism-based
Aspergillus fumigatus = experiment: Antifungal activity against Aspergillus fumigatus 231 assessed as growth inhibition after 24 to 48 hrs by microbroth dilution method; format: functional, organism-based
Trichosporon asahii = experiment: Antifungal activity against Trichosporon asahii 1188 assessed as growth inhibition after 24 to 48 hrs by microbroth dilution method; format: functional, organism-based
Nakaseomyces glabratus = experiment: Antifungal activity against Candida glabrata 20/I assessed as growth inhibition after 24 to 48 hrs by microbroth dilution method; format: functional, organism-based
Pichia kudriavzevii = experiment: Antifungal activity against Candida krusei E28 assessed as growth inhibition after 24 to 48 hrs by microbroth dilution method; format: functional, organism-based
Candida albicans = experiment: Antifungal activity against Candida albicans ATCC 44859 assessed as growth inhibition after 24 to 48 hrs by microbroth dilution method; format: functional, organism-based
Candida tropicalis = experiment: Antifungal activity against Candida tropicalis 156 assessed as growth inhibition after 24 to 48 hrs by microbroth dilution method; format: functional, organism-based
Klebsiella pneumoniae [3] = experiment: Antibacterial activity against ESBL-positive Klebsiella pneumoniae J 14368/08 clinical isolate assessed as growth inhibition after 24 to 48 hrs by microbroth dilution method; format: functional, organism-based
Klebsiella pneumoniae [4] = experiment: Antibacterial activity against Klebsiella pneumoniae D 11750/08 clinical isolate assessed as growth inhibition after 24 to 48 hrs by microbroth dilution method; format: functional, organism-based
Enterococcus = experiment: Antibacterial activity against Enterococcus sp. J 14365/08 clinical isolate assessed as growth inhibition after 24 to 48 hrs by microbroth dilution method; format: functional, organism-based
[5] = test system: Staphylococcus epidermidis; experiment: Antibacterial activity against Staphylococcus epidermidis H 6966/08 clinical isolate assessed as growth inhibition after 24 to 48 hrs by microbroth dilution method; format: functional, organism-based
Staphylococcus aureus [6] = experiment: Antibacterial activity against methicillin-resistant Staphylococcus aureus H 5996/08 clinical isolate assessed as growth inhibition after 24 to 48 hrs by microbroth dilution method; format: functional, organism-based
Pseudomonas aeruginosa = experiment: Antibacterial activity against Pseudomonas aeruginosa CCM 1961 assessed as growth inhibition after 24 to 48 hrs by microbroth dilution method; format: functional, organism-based
Escherichia coli = experiment: Antibacterial activity against Escherichia coli CCM 4517 assessed as growth inhibition after 24 to 48 hrs by microbroth dilution method; format: functional, organism-based
Staphylococcus aureus [7] = experiment: Antibacterial activity against Staphylococcus aureus CCM 4516/08 assessed as growth inhibition after 24 to 48 hrs by microbroth dilution method; format: functional, organism-based
[8] = Lipophilicity, log K of the compound by HPLC analysis; format: physicochemical
[9] = test system: Mycobacterium tuberculosis; experiment: Ratio of pyrazinamide MIC to compound MIC for Mycobacterium tuberculosis H37Rv; format: functional
Mycobacterium avium [10] = experiment: Antimycobacterial activity against Mycobacterium avium CNCTC My 152/73 assessed as growth inhibition after 14 days by microdilution method; format: functional; conditions: CNCTC My 152/73, 336 h
Mycobacterium avium [11] = experiment: Antimycobacterial activity against Mycobacterium avium CNCTC My 80/72 assessed as growth inhibition after 14 days by microdilution method; format: functional; conditions: CNCTC My 80/72, 336 h
Mycobacterium kansasii [12] = experiment: Antimycobacterial activity against Mycobacterium kansasii CNCTC My 235/80 assessed as growth inhibition after 14 days by microdilution method; format: functional; conditions: CNCTC My 235/80, 336 h
[13] = test system: Mycobacterium tuberculosis; experiment: Antimycobacterial activity against Mycobacterium tuberculosis H37Rv assessed as growth inhibition after 14 days by microdilution method; format: functional; conditions: 336 h
[14] = test system: Mycolicibacterium fortuitum; experiment: Antimycobacterial activity against pyrazinamide-resistant Mycobacterium fortuitum ATCC 49601 assessed as growth inhibition after 24 hrs to 2 weeks by microbroth dilution method; format: functional
[15] = test system: Mycolicibacterium fortuitum; experiment: Antimycobacterial activity against pyrazinamide-resistant Mycobacterium fortuitum ATCC 49403 assessed as growth inhibition after 24 hrs to 2 weeks by microbroth dilution method; format: functional
Mycobacterium kansasii [16] = experiment: Antimycobacterial activity against pyrazinamide-resistant Mycobacterium kansasii assessed as growth inhibition after 24 hrs to 2 weeks by microbroth dilution method; format: functional
[17] = test system: Mycobacterium tuberculosis; experiment: Antimycobacterial activity against pyrazinamide-susceptible Mycobacterium tuberculosis ATCC 35801 assessed as growth inhibition after 24 hrs to 2 weeks by microbroth dilution method; format: functional
[18] = test system: Mycobacterium tuberculosis; experiment: Antimycobacterial activity against pyrazinamide-susceptible Mycobacterium tuberculosis ATCC 27294 assessed as growth inhibition after 24 hrs to 2 weeks by microbroth dilution method; format: functional

SMILES | Stability [1] | growth inhibition (GI) [2] | growth inhibition (GI) (Lichtheimia corymbifera) | growth inhibition (GI) (Aspergillus fumigatus) | growth inhibition (GI) (Trichosporon asahii) | growth inhibition (GI) (Nakaseomyces glabratus) | growth inhibition (GI) (Pichia kudriavzevii) | growth inhibition (GI) (Candida albicans) | growth inhibition (GI) (Candida tropicalis) | growth inhibition (GI) (Klebsiella pneumoniae [3]) | growth inhibition (GI) (Klebsiella pneumoniae [4]) | growth inhibition (GI) (Enterococcus) | growth inhibition (GI) [5] | growth inhibition (GI) (Staphylococcus aureus [6]) | growth inhibition (GI) (Pseudomonas aeruginosa) | growth inhibition (GI) (Escherichia coli) | growth inhibition (GI) (Staphylococcus aureus [7]) | log K [8] | MIC (Mycobacterium avium [10]) | MIC (Mycobacterium avium [11]) | also measured
O=C(NCc1ccc(Cl)cc1Cl)c1cnc(Cl)cn1 | Stable | inactive | inactive | inactive | inactive | inactive | inactive | inactive | inactive | inactive | inactive | inactive | inactive | inactive | inactive | inactive | inactive | 0.727 | > 100 µg/mL | > 100 µg/mL | Ratio [9]: 3; MIC (Mycobacterium kansasii [12]): > 100 µg/mL; MIC [13]: 12.5 µg/mL (≈ 39.5 µM)
NC(=O)c1cnc(Cl)cn1 |  |  |  |  |  |  |  |  |  |  |  |  |  |  |  |  |  |  |  |  | MIC [14]: 8 µg/mL (≈ 50.8 µM); MIC [15]: 8 µg/mL (≈ 50.8 µM); MIC (Mycobacterium kansasii [16]): 8 µg/mL (≈ 50.8 µM); MIC [17]: 16 µg/mL (≈ 102 µM); MIC [18]: 16 µg/mL (≈ 102 µM)
O=C(NCc1ccc(Br)cc1)c1cnc(Cl)cn1 | Stable | inactive | inactive | inactive | inactive | inactive | inactive | inactive | inactive | inactive | inactive | inactive | inactive | inactive | inactive | inactive | inactive | 0.4981 | > 100 µg/mL | > 100 µg/mL | Ratio [9]: 3; MIC (Mycobacterium kansasii [12]): 50 µg/mL (≈ 153 µM); MIC [13]: 12.5 µg/mL (≈ 38.3 µM)
O=C(NCc1ccccc1C(F)(F)F)c1cnc(Cl)cn1 | Stable | inactive | inactive | inactive | inactive | inactive | inactive | inactive | inactive | inactive | inactive | inactive | inactive | inactive | inactive | inactive | inactive | 0.4851 | > 100 µg/mL | > 100 µg/mL | MIC (Mycobacterium kansasii [12]): 100 µg/mL (≈ 317 µM); MIC [13]: 25 µg/mL (≈ 79.2 µM)
